experiment: method code RP-HPLC, from DOI: 10.1081/jlc-120027619; settings: pH 3.1

logD | Compound
3.18 | O=C1c2cccc(O)c2C(=O)c2c(O)cc(CO)cc21
4.65 | Cc1coc2c1C(=O)C(=O)c1c-2ccc2c(C)cccc12
3.68 | O=C(O)c1cc(O)c2c(c1)C(=O)c1cccc(O)c1C2=O
0.11 | O=C(O)C(O)Cc1ccc(O)c(O)c1 (configuration not stated)
4.39 | Cc1cc(O)c2c(c1)C(=O)c1cccc(O)c1C2=O
1.34 | O=c1c(-c2ccc(O)cc2)coc2c([C@@H]3O[C@H](CO)[C@@H](O)[C@H](O)[C@H]3O)c(O)ccc12
0.82 | O=Cc1ccc(O)c(O)c1
4.48 | Cc1cc(O)c2c(c1)C(=O)c1cc(O)cc(O)c1C2=O
4.93 | COc1cc(O)c2c(c1)C(=O)c1cc(C)cc(O)c1C2=O
5.4 | Cc1coc2c1C(=O)C(=O)c1c-2ccc2c1CCCC2(C)C

Compound | logD
C[C@H]1COC2=C1C(=O)C(=O)c1c2ccc2c1CCCC2(C)C | 4.72

experiment: method code SF-AS, from DOI: 10.1081/jlc-120027619; settings: not given

Compound | logP
Cc1cccc2c3c(ccc12)C1=C(C(=O)C3=O)[C@@H](C)CO1 | 3.14
